Reference: US20060035810A1, “Regulation of ins(3456)p4 signalling by a reversible kinase phosphatase and methods and compositions related thereto” (priority 2002, published 2006)

Assays:
Format in all cases: cell-based, mouse
[1] = system: insulin granules in pancreatic β-cells; experiment: Insulin granule acidification, LSG fluorescence with patch-clamp and confocal imaging
Protocol: FIG. 6. Ins(3,4,5,6)P4 inhibits acidification of insulin granules in pancreatic β-cells. FIG. 6A, Representative time-courses for intragranular acidification, monitored by increased fluorescence of LSG before and after establishment of the standard whole-cell configuration (see arrow) and the effect of perfusion of intracellular medium (containing 0.4 μM [Ca^2+]free except where “no calcium” is indicated; see Methods) plus either 0 (“control”), 1 or 10 μM Ins(3,4,5,6)P4. FIG. 6B, Mean (±SE) fluorescence changes (n-5-11), during the 60 s that followed establishment of the standard whole-cell configuration, for cells perfused with inositol phosphates as indicated at the base of the bar graph. Where indicated, DIDS (100 μM) were added to the bath solution 30 min prior to patching the cells. Statistical significance was evaluated by Student's unpaired t-test (* P<0.01).
The inositol phosphates used in this study were all purchased from CellSignals Inc (Lexington, Ky.). Insulin granule pH were monitored by combining the patch-clamp technique with confocal imaging. Pancreatic β-cells, isolated and cultured on glass coverslips for 2-24 h, were voltage clamped at −70 mV, as previously described (B9). LysoSensor-Green™ DND-189 (1 μM; Molecular Probes, Leiden, The Netherlands) was added during the last 30 min of cell culture and was also included in the extracellular buffer (B9) that continuously perfused the experimental chamber. All LSG experiments were performed at 20° C. to prevent exocytosis that otherwise interfered with the optical measurements (15). LSG fluorescence was excited using the 488 nm-line of a Zeiss 510 confocal microscope. The emitted light was collected with a 63×/1.3 NA oil objective and a >505 nm filter. Laser scanning was performed with low pixel resolution (128×128) and with 6 s intervals to minimize photo-bleaching. After gigaseal formation, it was ascertained that LSG fluorescence was stable for at least 30 s before the experiment commenced. The intracellular electrode solution contained: 125 mM K-glutamate, 10 mM KCl, 1 0 mM NaCl, 1 mM MgCl2, 5 mM HEPES, 3 mM Mg-ATP, 0.1 mM cAMP, 10 mM EGTA and 7 mM CaCl2 (˜0.4 μM free [Ca^2+]I; pH 7.2 with KOH). In some experiments, marked “no calcium”, there was no added Ca^2+, and the concentration of EGTA was 50 μM. Whole-cell capacitance measurements (at 33° C.) were made with the cells clamped at −70 mV, and the standard whole-cell configuration was established at t=0. Capacitance recordings were made using an EPC-7 patch-clamp amplifier equipped with the software Pulse (version 8.4 and later) and the X-chart extension (HEKA Elektronik, Lambrecht/Pfalz, Germany) (B9).

[2] = system: insulin granules in pancreatic β-cells; experiment: CCCP-mediated de-acidification of insulin granules, LSG fluorescence
Protocol: FIG. 7A, Representative confocal images of LSG fluorescence immediately before (zero) and 60 s after perfusion of cells with intracellular buffer supplemented with 100 μM of the protonophore, CCCP, in the absence or presence of 10 μM Ins(3,4,5,6)P4. FIG. 7B, Representative time-courses for changes in LSG-fluorescence ([F/F0] as % of zero time) immediately after establishing a standard whole-cell configuration as in panel A, with intracellular medium (containing 0.4 μM [Ca^2+]free except where “no calcium” is indicated; see Methods) plus 100 μM CCCP, together with either 0 (“control”) or 10 μM Ins(3,4,5,6)P4. FIG. 7C, Mean (±SE) fluorescence changes (n=4-6), during the 60 s that followed establishment of the standard whole-cell configuration, for cells perfused with intracellular medium supplemented with inositol phosphates as indicated at the base of the bar graph ([…]).
The inositol phosphates used in this study were all purchased from CellSignals Inc (Lexington, Ky.). Insulin granule pH were monitored by combining the patch-clamp technique with confocal imaging. Pancreatic β-cells, isolated and cultured on glass coverslips for 2-24 h, were voltage clamped at −70 mV, as previously described (B9). LysoSensor-Green™ DND-189 (1 μM; Molecular Probes, Leiden, The Netherlands) was added during the last 30 min of cell culture and was also included in the extracellular buffer (B9) that continuously perfused the experimental chamber. All LSG experiments were performed at 20° C. to prevent exocytosis that otherwise interfered with the optical measurements (15). LSG fluorescence was excited using the 488 nm-line of a Zeiss 510 confocal microscope. The emitted light was collected with a 63×/1.3 NA oil objective and a >505 nm filter. Laser scanning was performed with low pixel resolution (128×128) and with 6 s intervals to minimize photo-bleaching. After gigaseal formation, it was ascertained that LSG fluorescence was stable for at least 30 s before the experiment commenced. The intracellular electrode solution contained: 125 mM K-glutamate, 10 mM KCl, 1 0 mM NaCl, 1 mM MgCl2, 5 mM HEPES, 3 mM Mg-ATP, 0.1 mM cAMP, 10 mM EGTA and 7 mM CaCl2 (˜0.4 μM free [Ca^2+]I; pH 7.2 with KOH). In some experiments, marked “no calcium”, there was no added Ca^2+, and the concentration of EGTA was 50 μM. Whole-cell capacitance measurements (at 33° C.) were made with the cells clamped at −70 mV, and the standard whole-cell configuration was established at t=0. Capacitance recordings were made using an EPC-7 patch-clamp amplifier equipped with the software Pulse (version 8.4 and later) and the X-chart extension (HEKA Elektronik, Lambrecht/Pfalz, Germany) (B9). […]

pancreatic β-cells = experiment: Ca2+-induced exocytosis, whole-cell capacitance recordings
Protocol: FIG. 8A, Representative increases in cell capacitance (ΔC), reflecting exocytosis (as is described in Barg et al., J. Cell Sci 114: 2145-2154 (2001)), elicited by intracellular perfusion with intracellular solution (0.4 μM [Ca^2+]free), containing either 0 (“control”) or 10 μM Ins(3,4,5,6)P4. FIG. 8B, Average rates of capacitance increase (ΔC/Δt) during the first minute of recording, as described for FIG. 8A, in 5-17 experiments. FIG. 8C, Representative increases in ΔC, measured under the same conditions as in FIG. 8A, except that the [Ca^2+]free was 1.5 μM. FIG. 8D, Average rates of capacitance increase (ΔC/Δt) during the first minute of recording, as described for FIG. 8C, in 6-11 experiments.
The inositol phosphates used in this study were all purchased from CellSignals Inc (Lexington, Ky.). Insulin granule pH were monitored by combining the patch-clamp technique with confocal imaging. Pancreatic β-cells, isolated and cultured on glass coverslips for 2-24 h, were voltage clamped at −70 mV, as previously described (B9). LysoSensor-Green™ DND-189 (1 μM; Molecular Probes, Leiden, The Netherlands) was added during the last 30 min of cell culture and was also included in the extracellular buffer (B9) that continuously perfused the experimental chamber. All LSG experiments were performed at 20° C. to prevent exocytosis that otherwise interfered with the optical measurements (15). LSG fluorescence was excited using the 488 nm-line of a Zeiss 510 confocal microscope. The emitted light was collected with a 63×/1.3 NA oil objective and a >505 nm filter. Laser scanning was performed with low pixel resolution (128×128) and with 6 s intervals to minimize photo-bleaching. After gigaseal formation, it was ascertained that LSG fluorescence was stable for at least 30 s before the experiment commenced. The intracellular electrode solution contained: 125 mM K-glutamate, 10 mM KCl, 1 0 mM NaCl, 1 mM MgCl2, 5 mM HEPES, 3 mM Mg-ATP, 0.1 mM cAMP, 10 mM EGTA and 7 mM CaCl2 (˜0.4 μM free [Ca^2+]I; pH 7.2 with KOH). In some experiments, marked “no calcium”, there was no added Ca^2+, and the concentration of EGTA was 50 μM. Whole-cell capacitance measurements (at 33° C.) were made with the cells clamped at −70 mV, and the standard whole-cell configuration was established at t=0. […]
The degree of insulin granule acidification in pancreatic β-cells has been proposed to affect their fusogenic potential, thereby influencing the rate of insulin secretion by exocytosis (B9;B16). So we next investigated if the interaction of Ins(3,4,5,6)P4 with insulin granule Cl^− channels affected exocytosis, which we recorded by monitoring capacitance of β-cells with the whole-cell patch-clamp technique (B16). […]

| Compound | effect on vesicle acidification ([1]; 100 μM) | effect on rate of CCCP-promoted H+ efflux out of the granule ([2]; 100 μM, 100 μM CCCP) | effect on exocytosis (pancreatic β-cells; 100 μM, 0.4 μM [Ca2+]free) | effect on granule acidification ([1]; 1 μM (resting level)) | reduction of the rate of acidification of the granular interior ([1]; 10 μM perfused into the cell, 0.4 μM [Ca2+]free) | effect on CCCP-induced collapse of the pH gradient ([2]; 1 μM (resting level)) | effect on CCCP-induced H+ flux ([2]; 10 μM, 100 μM CCCP) | effect on exocytosis (pancreatic β-cells; 1 μM, 0.4 μM [Ca2+]free) | effect on rate of exocytosis (pancreatic β-cells; 1.5 μM [Ca2+]free) | inhibition at 10 µM (pancreatic β-cells; Mus musculus, 10 μM, 0.4 μM [Ca2+]free) |
| --- | --- | --- | --- | --- | --- | --- | --- | --- | --- | --- |
| O=P(O)(O)OC1[C@@H](OP(=O)(O)O)[C@H](OP(=O)(O)O)C(O)[C@H](OP(=O)(O)O)[C@H]1OP(=O)(O)O (stereo partly shown) [Ins(1,3,4,5,6)P5, inositol 1,3,4,5,6-pentakisphosphate] | neither 100 μM Ins(1,4,5,6)P4 nor 100 μM Ins(1,3,4,5,6)P5 affected | no effect | no effect |  |  |  |  |  |  |  |
| O=P(O)(O)OC1C(O)C(O)C(OP(=O)(O)O)C(OP(=O)(O)O)C1OP(=O)(O)O (stereo not shown) [Ins(3,4,5,6)P4, inositol 3,4,5,6-tetrakisphosphate] |  |  |  | ineffective | approximately 65% | failed to affect | inhibitory effect | ineffective | did not affect | ~50% |
